Consider 19 substances from the OligoGym collection.

HELM strings list units from the 5' end as sugar, base in round brackets, then linkage (d deoxyribose, r ribose, m 2'-O-methyl, p phosphodiester). Strings are as the collection lists them, not checked against the first reports. ss, as = sense and antisense strand; [lna] = locked nucleic acid (LNA); [una] = unlocked nucleic acid; [hna] = hexitol nucleic acid; [s4r] = 4'-thioribose; [fl2r] = 2'-fluoro
Note: test system not given here.

The conditions of this data set: siRNA.
“RNA1{r(G)p.r(U)p.r(A)p.r(U)p.r(G)p.r(A)p.r(C)p.r(C)p.r(G)p.r(A)p.r(C)p.r(U)p.r(A)p.r(C)p.r(G)p.r(C)p.r(G)p.r(U)p.r(A)p.r(T)p.r(T)}|RNA2{r(U)p.r(U)p.r(C)p.r(A)p.r(G)p.r(U)p.r(G)p.r(U)p.[una](G)p.r(A)p.r(U)p.r(G)p.r(A)p.r(C)p.r(A)p.r(C)p.r(U)p.r(U)p.r(G)p.r(T)p.r(T)}$$$RNA1{StrandType:ss}|RNA2{StrandType:as}$”: the target mRNA knockdown worked out at 89%.

In the case of “RNA1{r(G)p.r(U)p.r(A)p.r(U)p.r(G)p.r(A)p.r(C)p.r(C)p.r(G)p.r(A)p.r(C)p.r(U)p.r(A)p.r(C)p.r(G)p.r(C)p.r(G)p.r(U)p.r(A)p.r(T)p.r(T)}|RNA2{r(U)p.r(U)p.r(C)p.r(A)p.r(G)p.r(U)p.r(G)p.r(U)p.r(G)p.[una](A)p.r(U)p.r(G)p.r(A)p.r(C)p.r(A)p.r(C)p.r(U)p.r(U)p.r(G)p.r(T)p.r(T)}$$$RNA1{StrandType:ss}|RNA2{StrandType:as}$”, the target mRNA knockdown worked out at 23%.

As for “RNA1{m(C)p.m(G)p.m(U)p.m(A)p.m(C)p.m(G)p.r(C)p.r(G)p.r(G)p.r(A)p.r(A)p.r(U)p.r(A)p.r(C)p.r(U)p.r(U)p.r(C)p.r(G)p.r(A)p.r(T)p.r(T)}|RNA2{r(U)p.r(C)p.r(G)p.r(A)p.r(A)p.r(G)p.r(U)p.r(A)p.r(U)p.r(U)p.r(C)p.r(C)p.r(G)p.r(C)p.r(G)p.r(U)p.r(A)p.r(C)p.r(G)p.r(T)p.r(T)}$$$RNA1{StrandType:ss}|RNA2{StrandType:as}$”, the target mRNA knockdown is 94.8%.

In the case of “RNA1{r(G)p.[hna](A)p.r(C)p.r(G)p.r(U)p.r(A)p.r(A)p.[hna](A)p.r(C)p.r(G)p.r(G)p.r(C)p.r(C)p.[hna](A)p.r(C)p.r(A)p.[hna](A)p.r(G)p.r(U)p.r(U)p.r(C)}|RNA2{r(A)p.r(C)p.r(U)p.r(U)p.r(G)p.r(U)p.r(G)p.r(G)p.r(C)p.r(C)p.r(G)p.r(U)p.r(U)p.r(U)p.r(A)p.r(C)p.r(G)p.r(U)p.r(C)p.r(G)p.r(C)}$$$RNA1{StrandType:ss}|RNA2{StrandType:as}$”, the target mRNA knockdown stood at 84.9%.

The substance “RNA1{r(G)p.r(C)p.r(A)p.r(G)p.r(C)p.r(A)p.r(C)p.r(G)p.r(A)p.r(C)p.r(U)p.r(U)p.r(C)p.r(U)p.r(U)p.r(C)p.r(A)p.r(A)p.r(G)p.r(U)p.r(U)}|RNA2{r(C)p.[fl2r](U)p.r(U)p.r(G)p.r(A)p.r(A)p.r(G)p.r(A)p.r(A)p.r(G)p.r(U)p.r(C)p.r(G)p.r(U)p.r(G)p.r(C)p.r(U)p.r(G)p.r(C)p.r(U)p.r(U)}$$$RNA1{StrandType:ss}|RNA2{StrandType:as}$” returned a target mRNA knockdown of 73.8%.

With “RNA1{r(A)p.r(C)p.r(G)p.r(U)p.m(C)p.r(A)p.r(C)p.r(C)p.r(G)p.r(A)p.r(G)p.r(G)p.r(A)p.r(G)p.r(A)p.r(A)p.r(G)p.m(U)p.r(A)p.r(T)p.r(T)}|RNA2{r(U)p.r(A)p.r(C)p.r(U)p.r(U)p.r(C)p.r(U)p.r(C)p.r(C)p.r(U)p.r(C)p.r(G)p.r(G)p.m(U)p.r(G)p.r(A)p.r(C)p.r(G)p.r(U)p.r(T)p.r(T)}$$$RNA1{StrandType:ss}|RNA2{StrandType:as}$”, the target mRNA knockdown is 48%.

Substance “RNA1{r(G)p.r(A)p.r(C)p.r(G)p.[hna](U)p.r(A)p.r(A)p.[hna](A)p.r(C)p.r(G)p.[hna](G)p.r(C)p.r(C)p.[hna](A)p.r(C)p.r(A)p.r(A)p.r(G)p.r(U)p.r(U)p.d(T)}|RNA2{r(A)p.r(C)p.r(U)p.r(U)p.r(G)p.r(U)p.r(G)p.r(G)p.r(C)p.r(C)p.r(G)p.r(U)p.r(U)p.r(U)p.r(A)p.r(C)p.r(G)p.r(U)p.r(C)p.r(G)p.r(C)}$$$RNA1{StrandType:ss}|RNA2{StrandType:as}$” registered a target mRNA knockdown of 81.2%.

“RNA1{[s4r](C)p.[s4r](G)p.r(U)p.r(A)p.r(C)p.r(G)p.r(C)p.r(G)p.r(G)p.r(A)p.r(A)p.r(U)p.r(A)p.r(C)p.r(U)p.r(U)p.r(C)p.[s4r](G)p.[s4r](A)p.r(T)p.r(T)}|RNA2{r(U)p.r(C)p.r(G)p.r(A)p.r(A)p.r(G)p.r(U)p.r(A)p.r(U)p.r(U)p.r(C)p.r(C)p.r(G)p.r(C)p.r(G)p.r(U)p.r(A)p.[s4r](C)p.[s4r](G)p.r(T)p.r(T)}$$$RNA1{StrandType:ss}|RNA2{StrandType:as}$” showed a target mRNA knockdown of 92.1%.

Turning to “RNA1{r(A)p.r(A)p.m(C)p.r(A)p.r(G)p.r(C)p.r(C)p.r(U)p.m(U)p.r(A)p.r(C)p.r(C)p.r(C)p.r(C)p.r(G)p.r(A)p.r(U)p.r(U)p.r(C)p.r(T)p.r(T)}|RNA2{r(G)p.r(A)p.r(A)p.r(U)p.r(C)p.r(G)p.r(G)p.r(G)p.r(G)p.m(U)p.r(A)p.r(A)p.r(G)p.r(G)p.r(C)p.m(U)p.r(G)p.r(U)p.r(U)p.r(T)p.r(T)}$$$RNA1{StrandType:ss}|RNA2{StrandType:as}$”, the target mRNA knockdown stood at 68%.

In turn, “RNA1{r(C)p.r(U)p.r(A)p.r(A)p.r(G)p.r(G)p.r(A)p.r(C)p.r(C)p.r(U)p.r(A)p.r(A)p.r(C)p.r(A)p.r(A)p.r(A)p.r(G)p.r(U)p.[una](U)p.r(U)p.r(U)}|RNA2{r(A)p.r(A)p.r(C)p.r(U)p.r(U)p.r(U)p.r(G)p.r(U)p.r(U)p.r(A)p.r(G)p.r(G)p.r(U)p.r(C)p.r(C)p.r(U)p.r(U)p.r(A)p.r(G)p.r(U)p.r(U)}$$$RNA1{StrandType:ss}|RNA2{StrandType:as}$” registered a target mRNA knockdown of 60%.

In turn, “RNA1{r(A)p.r(A)p.r(C)p.r(C)p.[fl2r](C)p.r(A)p.r(C)p.r(C)p.r(A)p.[fl2r](C)p.r(A)p.r(G)p.r(C)p.[fl2r](U)p.r(A)p.r(G)p.r(A)p.r(A)p.r(C)p.r(U)p.r(U)}|RNA2{r(G)p.r(U)p.r(U)p.r(C)p.[fl2r](U)p.r(A)p.r(G)p.r(C)p.[fl2r](U)p.r(G)p.[fl2r](U)p.r(G)p.r(G)p.[fl2r](U)p.r(G)p.r(G)p.r(G)p.r(U)p.r(U)p.r(U)p.r(U)}$$$RNA1{StrandType:ss}|RNA2{StrandType:as}$” showed a target mRNA knockdown of 79%.

Consider “RNA1{r(G)p.r(A)p.r(C)p.r(G)p.r(U)p.r(A)p.r(A)p.r(A)p.r(C)p.r(G)p.r(G)p.r(C)p.r(C)p.r(A)p.r(C)p.r(A)p.r(A)p.r(G)p.r(U)p.r(U)p.r(T)}|RNA2{r(A)p.r(C)p.r(U)p.r(U)p.r(G)p.r(U)p.r(G)p.[hna](G)p.r(C)p.r(C)p.r(G)p.r(U)p.r(U)p.[hna](U)p.r(A)p.r(C)p.r(G)p.[hna](U)p.[hna](C)p.[hna](G)p.r(T)}$$$RNA1{StrandType:ss}|RNA2{StrandType:as}$”, for which the target mRNA knockdown turned out to be 87%.

“RNA1{[s4r](A)p.[s4r](A)p.[s4r](A)p.[s4r](C)p.r(A)p.r(U)p.r(G)p.r(C)p.r(A)p.r(G)p.r(A)p.r(A)p.r(A)p.r(A)p.r(U)p.r(G)p.r(C)p.r(U)p.r(G)p.r(T)p.r(T)}|RNA2{r(C)p.r(A)p.r(G)p.r(C)p.r(A)p.r(U)p.r(U)p.r(U)p.r(U)p.r(C)p.r(U)p.r(G)p.r(C)p.r(A)p.r(U)p.r(G)p.r(U)p.r(U)p.r(U)p.r(T)p.r(T)}$$$RNA1{StrandType:ss}|RNA2{StrandType:as}$”: the target mRNA knockdown was 70.4%.

Take “RNA1{[lna](T)p.r(G)p.[lna](A)p.r(G)p.[lna](A)p.r(G)p.r(A)p.r(A)p.[lna](A)p.r(G)p.r(C)p.[lna](A)p.r(C)p.[lna](A)p.r(G)p.r(A)p.[lna](A)p.r(A)p.r(A)p.[lna](T)p.[lna](T)}|RNA2{r(U)p.r(G)p.r(A)p.r(G)p.r(A)p.r(G)p.r(A)p.r(A)p.r(A)p.r(G)p.r(C)p.r(A)p.r(C)p.r(A)p.r(G)p.r(A)p.r(A)p.r(A)p.r(A)p.d(T)p.d(T)}$$$RNA1{StrandType:ss}|RNA2{StrandType:as}$”: the target mRNA knockdown was determined as 64%.

The substance “RNA1{m(G)p.r(G)p.m(A)p.r(G)p.m(C)p.r(A)p.m(C)p.r(G)p.m(C)p.r(U)p.m(U)p.r(A)p.m(C)p.r(U)p.m(A)p.r(C)p.m(C)p.r(U)p.m(U)p.r(T)p.r(T)}|RNA2{r(A)p.r(A)p.r(G)p.r(G)p.r(U)p.r(A)p.r(G)p.r(U)p.r(A)p.r(A)p.r(G)p.r(C)p.r(G)p.r(U)p.r(G)p.r(C)p.r(U)p.r(C)p.r(C)p.r(T)p.r(T)}$$$RNA1{StrandType:ss}|RNA2{StrandType:as}$” yielded a target mRNA knockdown of 51%.

The substance “RNA1{[s4r](A)p.[s4r](A)p.[s4r](A)p.[s4r](C)p.r(A)p.r(U)p.r(G)p.r(C)p.r(A)p.r(G)p.r(A)p.r(A)p.r(A)p.r(A)p.r(U)p.[s4r](G)p.[s4r](C)p.[s4r](C)p.[s4r](U)p.r(T)p.r(T)}|RNA2{r(C)p.r(A)p.r(G)p.r(C)p.r(A)p.r(U)p.r(U)p.r(U)p.r(U)p.r(C)p.r(U)p.r(G)p.r(C)p.r(A)p.r(U)p.[s4r](G)p.[s4r](U)p.[s4r](U)p.[s4r](U)p.r(T)p.r(T)}$$$RNA1{StrandType:ss}|RNA2{StrandType:as}$” yielded a target mRNA knockdown of 87.3%.

“RNA1{[fl2r](A)p.r(C)p.[fl2r](C)p.r(U)p.[fl2r](U)p.r(A)p.[fl2r](A)p.r(G)p.[fl2r](G)p.r(A)p.[fl2r](C)p.r(C)p.[fl2r](A)p.r(C)p.[fl2r](C)p.r(G)p.[fl2r](G)p.r(A)p.[fl2r](U)p.r(T)p.r(T)}|RNA2{[fl2r](A)p.r(U)p.r(C)p.r(C)p.r(G)p.r(G)p.r(U)p.r(G)p.r(G)p.r(U)p.r(C)p.r(C)p.r(U)p.r(U)p.[fl2r](A)p.[fl2r](A)p.r(G)p.r(G)p.r(U)p.r(T)p.r(T)}$$$RNA1{StrandType:ss}|RNA2{StrandType:as}$” yielded a target mRNA knockdown of 41%.

The substance “RNA1{r(G)p.r(U)p.r(U)p.r(C)p.r(A)p.r(C)p.r(G)p.r(U)p.r(C)p.r(C)p.r(U)p.r(A)p.r(C)p.r(C)p.r(C)p.r(C)p.r(U)p.r(U)p.r(U)p.r(T)p.r(T)}|RNA2{r(A)p.r(A)p.r(A)p.r(G)p.r(G)p.r(G)p.r(G)p.[fl2r](U)p.r(A)p.r(G)p.r(G)p.r(A)p.r(C)p.r(G)p.r(U)p.r(G)p.r(A)p.r(A)p.r(C)p.r(T)p.r(T)}$$$RNA1{StrandType:ss}|RNA2{StrandType:as}$” had a target mRNA knockdown of 69%.

Turning to “RNA1{m(G)p.r(G)p.m(G)p.r(G)p.m(C)p.r(U)p.m(C)p.r(U)p.m(U)p.r(C)p.m(U)p.r(A)p.m(C)p.r(A)p.m(U)p.r(U)p.m(C)p.r(C)p.m(C)p.r(T)p.r(T)}|RNA2{r(G)p.r(G)p.r(G)p.r(A)p.r(A)p.r(U)p.r(G)p.r(U)p.r(A)p.r(G)p.r(A)p.r(A)p.r(G)p.r(A)p.r(G)p.r(C)p.r(C)p.r(C)p.r(C)p.r(T)p.r(T)}$$$RNA1{StrandType:ss}|RNA2{StrandType:as}$”, the target mRNA knockdown stood at 51%.
